Experiments:
[1] = target: T1, Alpha-1A adrenergic receptor (Homo sapiens, UniProt P35348)
T1 sequence (P35348 whole entry): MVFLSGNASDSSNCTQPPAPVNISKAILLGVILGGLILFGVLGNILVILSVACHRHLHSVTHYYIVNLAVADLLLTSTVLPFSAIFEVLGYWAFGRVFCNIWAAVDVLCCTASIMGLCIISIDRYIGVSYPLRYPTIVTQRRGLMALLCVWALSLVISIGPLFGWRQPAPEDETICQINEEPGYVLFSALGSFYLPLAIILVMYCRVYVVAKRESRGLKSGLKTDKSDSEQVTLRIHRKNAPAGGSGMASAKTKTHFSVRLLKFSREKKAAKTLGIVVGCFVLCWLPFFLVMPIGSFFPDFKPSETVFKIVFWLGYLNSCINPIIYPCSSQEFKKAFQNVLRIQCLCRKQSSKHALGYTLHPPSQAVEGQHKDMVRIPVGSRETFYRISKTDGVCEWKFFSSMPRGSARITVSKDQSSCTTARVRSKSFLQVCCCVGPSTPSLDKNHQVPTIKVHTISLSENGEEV

[2] = target: T2, Alpha-2B adrenergic receptor (Homo sapiens, UniProt P18089)
T2 sequence (P18089 whole entry): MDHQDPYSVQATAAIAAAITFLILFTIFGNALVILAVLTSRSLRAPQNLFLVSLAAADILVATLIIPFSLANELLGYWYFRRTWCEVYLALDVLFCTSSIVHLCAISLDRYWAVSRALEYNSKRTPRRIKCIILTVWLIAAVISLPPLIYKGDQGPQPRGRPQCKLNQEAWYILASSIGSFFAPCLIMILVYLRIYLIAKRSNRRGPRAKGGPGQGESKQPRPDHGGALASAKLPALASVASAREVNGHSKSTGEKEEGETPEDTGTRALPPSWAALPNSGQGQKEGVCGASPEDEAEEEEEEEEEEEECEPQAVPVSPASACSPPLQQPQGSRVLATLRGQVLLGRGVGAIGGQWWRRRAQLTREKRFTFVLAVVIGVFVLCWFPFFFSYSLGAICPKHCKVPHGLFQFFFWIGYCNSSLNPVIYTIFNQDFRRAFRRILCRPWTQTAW

[3] = target: T3, Muscarinic acetylcholine receptor M1 (Homo sapiens, UniProt P11229); type: functional
T3 sequence (P11229 whole entry): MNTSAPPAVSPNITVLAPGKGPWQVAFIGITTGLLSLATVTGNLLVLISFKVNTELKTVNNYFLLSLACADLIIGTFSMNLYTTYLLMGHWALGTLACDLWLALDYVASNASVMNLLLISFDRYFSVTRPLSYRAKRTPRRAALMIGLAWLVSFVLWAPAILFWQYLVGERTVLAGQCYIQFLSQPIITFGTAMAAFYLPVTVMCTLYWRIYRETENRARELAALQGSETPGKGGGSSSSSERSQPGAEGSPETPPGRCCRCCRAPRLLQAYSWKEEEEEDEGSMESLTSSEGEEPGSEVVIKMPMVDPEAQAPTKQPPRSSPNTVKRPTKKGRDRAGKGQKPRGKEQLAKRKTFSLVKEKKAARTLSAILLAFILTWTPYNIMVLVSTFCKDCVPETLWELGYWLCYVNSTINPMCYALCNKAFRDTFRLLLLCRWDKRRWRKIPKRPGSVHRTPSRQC

[4] = target: Muscarinic acetylcholine receptor M3 (Homo sapiens, UniProt P20309)
Muscarinic acetylcholine receptor M3, sequence (P20309 whole entry): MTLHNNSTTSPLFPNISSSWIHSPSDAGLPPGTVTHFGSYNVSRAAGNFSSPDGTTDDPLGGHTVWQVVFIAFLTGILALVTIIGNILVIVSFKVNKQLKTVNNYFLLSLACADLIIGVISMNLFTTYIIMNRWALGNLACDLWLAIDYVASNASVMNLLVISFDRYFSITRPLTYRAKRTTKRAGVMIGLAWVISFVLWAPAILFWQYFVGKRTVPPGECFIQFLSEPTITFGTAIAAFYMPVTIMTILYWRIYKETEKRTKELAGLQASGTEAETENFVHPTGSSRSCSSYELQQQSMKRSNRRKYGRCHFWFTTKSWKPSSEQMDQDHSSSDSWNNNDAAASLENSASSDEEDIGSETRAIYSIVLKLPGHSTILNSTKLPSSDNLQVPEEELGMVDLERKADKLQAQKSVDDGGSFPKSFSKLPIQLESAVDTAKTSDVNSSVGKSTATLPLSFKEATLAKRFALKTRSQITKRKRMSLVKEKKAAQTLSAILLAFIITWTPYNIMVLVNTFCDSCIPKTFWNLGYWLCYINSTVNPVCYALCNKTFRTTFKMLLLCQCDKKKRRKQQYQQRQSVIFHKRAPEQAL

[5] = target: T4, Cannabinoid receptor 1 (Homo sapiens, UniProt P21554); type: functional, cell-based
T4 sequence (P21554 whole entry): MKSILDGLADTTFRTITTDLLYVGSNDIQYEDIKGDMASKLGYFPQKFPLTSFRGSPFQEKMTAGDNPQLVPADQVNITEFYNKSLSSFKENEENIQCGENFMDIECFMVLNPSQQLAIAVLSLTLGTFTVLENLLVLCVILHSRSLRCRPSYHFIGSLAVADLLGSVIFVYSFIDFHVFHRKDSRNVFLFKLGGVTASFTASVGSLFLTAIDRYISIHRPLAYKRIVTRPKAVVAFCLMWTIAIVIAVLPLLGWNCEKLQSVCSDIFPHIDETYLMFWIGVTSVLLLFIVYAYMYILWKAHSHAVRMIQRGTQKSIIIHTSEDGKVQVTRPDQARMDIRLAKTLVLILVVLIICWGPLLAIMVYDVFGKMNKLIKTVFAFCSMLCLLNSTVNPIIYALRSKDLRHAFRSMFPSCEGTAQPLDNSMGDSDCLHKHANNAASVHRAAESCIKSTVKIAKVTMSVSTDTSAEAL

[6] = target: T5, Estrogen receptor (Homo sapiens, UniProt P03372)
T5 sequence (P03372 whole entry): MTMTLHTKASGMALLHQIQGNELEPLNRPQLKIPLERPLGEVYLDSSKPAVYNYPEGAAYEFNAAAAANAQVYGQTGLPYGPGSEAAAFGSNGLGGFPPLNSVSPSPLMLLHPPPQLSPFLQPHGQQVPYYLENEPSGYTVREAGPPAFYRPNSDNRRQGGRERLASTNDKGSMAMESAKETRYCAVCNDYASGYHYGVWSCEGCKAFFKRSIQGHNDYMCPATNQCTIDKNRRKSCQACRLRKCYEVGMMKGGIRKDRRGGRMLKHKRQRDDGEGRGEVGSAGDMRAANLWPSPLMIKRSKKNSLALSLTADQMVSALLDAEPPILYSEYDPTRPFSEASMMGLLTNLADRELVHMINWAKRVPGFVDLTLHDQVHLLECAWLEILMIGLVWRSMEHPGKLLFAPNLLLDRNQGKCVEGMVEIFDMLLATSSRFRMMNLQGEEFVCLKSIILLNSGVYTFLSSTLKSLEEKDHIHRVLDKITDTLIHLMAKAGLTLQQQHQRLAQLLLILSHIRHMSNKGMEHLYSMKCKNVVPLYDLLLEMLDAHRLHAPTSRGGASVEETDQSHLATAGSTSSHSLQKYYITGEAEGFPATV

[7] = target: T6, 5-hydroxytryptamine receptor 1A (Homo sapiens, UniProt P08908); type: functional, cell-based
T6 sequence (P08908 whole entry): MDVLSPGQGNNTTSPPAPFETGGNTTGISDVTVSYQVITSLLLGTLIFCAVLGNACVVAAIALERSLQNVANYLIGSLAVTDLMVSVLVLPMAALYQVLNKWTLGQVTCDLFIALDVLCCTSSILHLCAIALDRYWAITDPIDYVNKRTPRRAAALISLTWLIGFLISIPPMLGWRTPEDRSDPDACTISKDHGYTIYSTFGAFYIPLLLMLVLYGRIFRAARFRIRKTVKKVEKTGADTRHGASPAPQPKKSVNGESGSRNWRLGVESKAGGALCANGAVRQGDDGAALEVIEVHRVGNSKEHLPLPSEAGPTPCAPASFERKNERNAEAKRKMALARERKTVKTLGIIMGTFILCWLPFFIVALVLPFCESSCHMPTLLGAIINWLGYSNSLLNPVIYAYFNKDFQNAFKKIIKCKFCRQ

[8] = target: T7, 5-hydroxytryptamine receptor 2A (Homo sapiens, UniProt P28223); type: functional, cell-based
T7 sequence (P28223 whole entry): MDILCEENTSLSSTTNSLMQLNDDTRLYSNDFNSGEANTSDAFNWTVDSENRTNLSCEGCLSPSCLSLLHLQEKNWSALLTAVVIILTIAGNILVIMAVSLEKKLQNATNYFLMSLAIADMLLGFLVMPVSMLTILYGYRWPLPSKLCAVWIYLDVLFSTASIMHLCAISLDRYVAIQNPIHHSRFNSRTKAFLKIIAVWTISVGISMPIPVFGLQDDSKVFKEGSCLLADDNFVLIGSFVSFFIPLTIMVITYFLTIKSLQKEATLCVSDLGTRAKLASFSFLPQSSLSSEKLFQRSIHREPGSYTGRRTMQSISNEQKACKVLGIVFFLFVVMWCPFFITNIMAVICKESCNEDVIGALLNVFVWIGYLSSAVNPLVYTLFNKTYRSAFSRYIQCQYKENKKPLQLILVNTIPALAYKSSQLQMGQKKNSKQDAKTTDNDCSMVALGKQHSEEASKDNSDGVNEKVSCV

[9] = target: T7, 5-hydroxytryptamine receptor 2A; type: functional, cell-based; remark: listed apart in the source
[10] = target: Mu-type opioid receptor (Homo sapiens, UniProt P35372); assay: biochemical; type: functional
Mu-type opioid receptor, sequence (P35372 whole entry): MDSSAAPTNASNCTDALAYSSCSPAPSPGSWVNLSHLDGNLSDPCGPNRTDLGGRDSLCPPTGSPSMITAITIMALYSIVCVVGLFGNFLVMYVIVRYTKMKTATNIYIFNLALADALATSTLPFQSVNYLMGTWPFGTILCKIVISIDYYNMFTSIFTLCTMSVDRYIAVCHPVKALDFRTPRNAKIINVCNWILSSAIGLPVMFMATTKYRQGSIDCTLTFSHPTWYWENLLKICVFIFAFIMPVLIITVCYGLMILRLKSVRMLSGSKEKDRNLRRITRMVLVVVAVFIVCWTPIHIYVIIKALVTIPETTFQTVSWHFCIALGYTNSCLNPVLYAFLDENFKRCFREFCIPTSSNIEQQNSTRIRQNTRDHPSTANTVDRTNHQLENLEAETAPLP

[11] = target: T1, Alpha-1A adrenergic receptor; type: functional, cell-based
[12] = target: T4, Cannabinoid receptor 1
[13] = target: Melanocortin receptor 4 (Homo sapiens, UniProt P32245)
Melanocortin receptor 4, sequence (P32245 whole entry): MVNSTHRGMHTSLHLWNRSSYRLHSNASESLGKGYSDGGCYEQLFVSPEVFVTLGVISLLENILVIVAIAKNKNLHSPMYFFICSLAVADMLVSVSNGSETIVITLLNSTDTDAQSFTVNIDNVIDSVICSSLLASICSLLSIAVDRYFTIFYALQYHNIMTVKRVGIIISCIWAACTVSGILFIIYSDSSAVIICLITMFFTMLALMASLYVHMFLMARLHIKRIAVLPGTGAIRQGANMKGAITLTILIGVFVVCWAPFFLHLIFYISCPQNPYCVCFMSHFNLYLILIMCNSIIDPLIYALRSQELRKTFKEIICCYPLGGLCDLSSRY
Note: assay procedure not described here.

Row | Compound | AC50 [1] | AC50 [2] | AC50 [3] | AC50 [4] | AC50 [5] | AC50 [6] | AC50 [7] | AC50 [8] | AC50 [9] | AC50 [10] | AC50 [11] | AC50 [12] | AC50 [13]
1 | CC(C)N(CCCCOCC(=O)O)c1cnc(-c2ccccc2)c(-c2ccccc2)n1 | > 30 µM | > 30 µM | > 30 µM | > 30 µM | > 30 µM | > 30 µM | > 30 µM | > 30 µM | > 30 µM | > 30 µM | > 30 µM | – | –
2 | COc1cc(C)c(/C=C/C(C)=C/C=C/C(C)=C/C(=O)O)c(C)c1C [ACITRETIN] | > 10 µM | > 10 µM | > 10 µM | > 30 µM | > 30 µM | > 30 µM | – | > 10 µM | > 10 µM | – | > 30 µM | > 10 µM | > 10 µM
3 | O=C(O)c1ccc(NC(=O)[C@H](Cc2ccc(O)cc2)NC(=O)c2ccccc2)cc1 [BENTIROMIDE] | > 10 µM | > 10 µM | > 10 µM | > 30 µM | – | > 10 µM | > 10 µM | > 10 µM | > 10 µM | – | – | > 10 µM | > 10 µM
4 | Clc1ccc(CCC(Cn2ccnc2)Sc2c(Cl)cccc2Cl)cc1 (configuration not stated) [BUTOCONAZOLE] | – | 19 µM | > 30 µM | 21 µM | – | 20 µM | – | > 30 µM | > 30 µM | > 30 µM | > 30 µM | > 30 µM | –
5 | CO/N=C(\C(=O)N[C@@H]1C(=O)N2C(C(=O)O)=C(CSc3nc(=O)c(=O)[nH]n3C)CS[C@H]12)c1csc(N)n1 [CEFTRIAXONE] | – | > 30 µM | > 30 µM | > 30 µM | > 30 µM | > 30 µM | > 30 µM | > 30 µM | > 30 µM | > 30 µM | > 30 µM | – | –
6 | CC(C)[C@@H](C)/C=C/[C@@H](C)[C@H]1CC[C@H]2/C(=C/C=C3\C[C@@H](O)CC[C@@H]3C)CCC[C@]12C [DIHYDROTACHYSTEROL] | > 10 µM | > 10 µM | > 10 µM | > 30 µM | – | > 30 µM | > 10 µM | > 10 µM | > 10 µM | – | – | > 10 µM | > 10 µM
7 | Oc1ccc(CCNCCCCCCNCCc2ccccc2)cc1O [DOPEXAMINE] | – | 19 µM | 14 µM | > 30 µM | > 30 µM | > 30 µM | > 30 µM | > 30 µM | > 30 µM | > 30 µM | 1.4 µM | – | –
8 | CC/C=C\C/C=C\C/C=C\C/C=C\C/C=C\CCCC(=O)OCC [ICOSAPENT ETHYL] | – | > 30 µM | > 30 µM | > 30 µM | > 30 µM | > 10 µM | > 30 µM | > 30 µM | > 30 µM | > 30 µM | > 30 µM | – | –
9 | CC(=O)[C@H]1CC[C@H]2[C@@H]3C[C@H](C)C4=CC(=O)CC[C@]4(C)[C@H]3[C@@H](O)C[C@]12C [MEDRYSONE] | > 10 µM | > 10 µM | > 10 µM | > 30 µM | > 30 µM | – | > 10 µM | > 10 µM | > 10 µM | – | > 30 µM | – | > 10 µM
10 | CCCC(C)(COC(N)=O)COC(N)=O [MEPROBAMATE] | > 30 µM | > 10 µM | > 30 µM | > 30 µM | – | – | > 10 µM | > 10 µM | > 10 µM | > 30 µM | – | > 10 µM | > 10 µM
11 | O=C(c1cc(Cc2n[nH]c(=O)c3ccccc23)ccc1F)N1CCN(C(=O)C2CC2)CC1 [OLAPARIB] | > 10 µM | > 10 µM | > 10 µM | > 30 µM | – | > 30 µM | – | > 10 µM | > 10 µM | – | – | > 10 µM | > 30 µM
12 | CCC(NC(C)C)C(O)c1ccc(O)c2[nH]c(=O)ccc12 (configuration not stated) [PROCATEROL] | – | > 30 µM | > 30 µM | > 30 µM | > 30 µM | > 30 µM | – | > 30 µM | > 30 µM | > 30 µM | > 30 µM | – | –
13 | C=CC[N+]1([C@H]2C[C@H]3[C@@H]4CC[C@H]5C[C@H](O)[C@@H](N6CCOCC6)C[C@]5(C)[C@H]4CC[C@]3(C)[C@H]2OC(C)=O)CCCC1 [ROCURONIUM] | – | > 30 µM | > 30 µM | > 30 µM | – | > 30 µM | > 30 µM | > 30 µM | > 30 µM | > 30 µM | > 30 µM | > 30 µM | > 30 µM
14 | C=CCN1CCc2nc(N)sc2CC1 [TALIPEXOLE] | > 30 µM | – | > 30 µM | > 30 µM | > 30 µM | – | > 30 µM | 11 µM | 24 µM | > 30 µM | – | – | –
15 | Cn1c(=O)c2c(ncn2CCOC(=O)C(C)(C)Oc2ccc(Cl)cc2)n(C)c1=O [THEOFIBRATE] | – | > 30 µM | > 30 µM | > 30 µM | > 30 µM | > 30 µM | > 30 µM | > 30 µM | > 30 µM | > 30 µM | > 30 µM | – | –
16 | CC(C)(C)NCC(O)c1ccccc1Cl (configuration not stated) [TULOBUTEROL] | – | > 30 µM | > 30 µM | > 30 µM | > 30 µM | > 30 µM | > 30 µM | > 30 µM | > 30 µM | > 30 µM | > 30 µM | – | –
17 | CC(C(=O)O)c1ccc2c(c1)CC(=O)c1ccccc1S2 (configuration not stated) [ZALTOPROFEN] | – | > 30 µM | > 30 µM | > 30 µM | > 30 µM | > 30 µM | – | > 30 µM | > 30 µM | > 30 µM | > 30 µM | – | –

— ChEMBL document CHEMBL5291721, “A preclinical secondary pharmacology resource illuminates target-adverse drug reaction associations of marketed drugs” (Nat Commun, 2023)
